In PubChem BioAssay AID1996:
Converted amounts (≈) assume the structure as drawn.

Settings: buffer; pH 7.4; 200.0 µM

SMILES | solubility kinetic [µg/mL]
Cn1cc(CC(=O)NCc2ccc(F)cc2)c2ccccc21 | > 44.5
CC(=O)Nc1ccc(S(=O)(=O)NC2CC3CCC2C3)cc1 (stereo unspecified) | > 46.3
COc1ccc(/C=C/C(=O)NC2=NCCS2)cc1OC | 1.5 (≈ 5.13 µM)
O=C(Nc1ccccc1O)c1ccc2c(c1)C(=O)N(c1ccccc1)C2=O | < 0.4
Cc1cc(O)cc(=O)n1CCc1ccccc1 | > 34.4
CCOC(=O)CC1COc2ccccc2N1C(=O)c1ccc(F)cc1 (stereo unspecified) | 47 (≈ 137 µM)
COc1ccc(S(=O)(=O)N2CCC(N3CCCC3)CC2)cc1 | 46.7 (≈ 144 µM)
Cc1occc1C(=O)Nc1cccc(S(=O)(=O)N2CCOCC2)c1 | 52.2 (≈ 149 µM)
O=Cc1ccc(-c2ccc([N+](=O)[O-])cc2Cl)o1 | 5.2 (≈ 20.7 µM)
CCCCC(=O)N1CC(=O)Nc2ccc(F)cc2C1c1ccccc1 (stereo unspecified) | > 51.1
COc1cccc(CN(C)S(=O)(=O)c2cccs2)c1 | 25.1 (≈ 84.4 µM)
Cc1cccc(C)c1NC(=S)NC(C)(C)CO | > 37.9
O=[N+]([O-])c1ccc(S(=O)(=O)NCCCc2ccccc2)cc1 | 28 (≈ 87.4 µM)
COc1ccc(NS(=O)(=O)c2cccc(C(=O)OCC(=O)NC3CC3)c2)cc1 | 11.6 (≈ 28.7 µM)
Cc1cccc(C(=O)N[C@H](C(=O)Nc2ccc3c(c2)OCO3)C(C)C)c1 | 5.5 (≈ 15.5 µM)
O=C(Nc1ccccc1C(=O)Nc1ccc(Cl)cc1)c1cccnc1 | 0.6 (≈ 1.71 µM)
O=C(O)c1ccc(-c2nc3scc(-c4ccccc4)c3c(=O)[nH]2)cc1 | > 52.3
COC(=O)CNC(=O)c1ccc(F)cc1 | 27.1 (≈ 128 µM)
COc1ccc(NC(=O)c2c(N)no[n+]2[O-])cc1 | 3 (≈ 12 µM)
Cc1c(Cl)cccc1NC(=O)Nc1cc(C(C)(C)C)on1 | < 0.2
Cc1ccsc1C(=O)Nc1ccc(OCc2ccccc2)cc1 | < 0.7
COc1ccc(Cc2nc(C)cc(Cl)n2)cc1[N+](=O)[O-].Cl | > 49.5

SMILES | solubility kinetic [µg/mL]
O=C(OCc1cccc([N+](=O)[O-])c1)c1cc(=O)[nH]c2ccccc12 | < 0.3
COc1ccccc1N1CN(S(=O)(=O)c2ccc(C)cc2)c2nc3ccccc3nc21 | 1 (≈ 2.31 µM)
COC(=O)[C@@H](N)CS.Cl | > 25.7
COc1cc(C(C)=O)ccc1Oc1cnccn1 | > 36.6
CCSc1nnc(NC(=O)C2CSC3(C)CCC(=O)N23)s1 (stereo unspecified) | > 51.7
CN1CCN(S(=O)(=O)c2cccc(C(=O)Nc3cccc([N+](=O)[O-])c3)c2)CC1 | 59.7 (≈ 148 µM)
CC12COC3(C(=O)Nc4ccccc4F)CC1CCC32C (stereo unspecified) | 9.1 (≈ 31.4 µM)
CC(NC(=O)CCC(=O)N1CCCCCC1)c1ccccc1 (stereo unspecified) | > 45.4
Cc1cnc(C(=O)NCc2ccc(F)cc2)cn1 | > 36.8
COc1cc2ncnc(NCc3cccc(F)c3F)c2cc1OC | 10.7 (≈ 32.3 µM)
O=C(COc1cccc(C(F)(F)F)c1)NCC(c1ccco1)N1CCCC1 (stereo unspecified) | 45.1 (≈ 118 µM)
CC(NC(=O)C1=CC=CN2CCS(=O)(=O)N=C12)c1ccc(Cl)c(Cl)c1 (stereo unspecified) | > 60
CC(C)(O)CNC(=O)Nc1ccc(Cl)c(Cl)c1 | 24.6 (≈ 88.8 µM)
CCOC(=O)CNC(=O)c1cccnc1Oc1ccc(Cl)cc1 | 20.2 (≈ 60.3 µM)
CN1CCN(C(=S)NC(=O)c2ccc(Br)cc2)CC1 | 51 (≈ 149 µM)
O=[N+]([O-])c1ccc(Oc2ccc(OCc3ccccc3)cc2)nc1 | < 0.3
CC(C(=O)Nc1ccc(F)c(F)c1F)N(C)CCOc1ccccc1 (stereo unspecified) | 13.6 (≈ 38.6 µM)
CC(C)c1ccc(-c2csc3nc[nH]c(=O)c23)cc1 | 9.1 (≈ 33.7 µM)
CC(=O)c1ccc(NC(=S)N2CCC(Cc3ccccc3)CC2)cc1 | 2.8 (≈ 7.94 µM)
COc1ccccc1C(=O)NCCOc1ccc(C)c(C)c1 | 43 (≈ 144 µM)
CCN(CC)c1nc2c(c(=O)n(C)c(=O)n2C)n1CCCc1ccccc1 | 50.7 (≈ 137 µM)
O=C(CCC(=O)N1CCCC1)Nc1ccc(Cl)c(Cl)c1 | 5.6 (≈ 17.8 µM)

SMILES | solubility kinetic [µg/mL]
CC(C)(C)c1ccc(CCC2OCC(C[N+]3(C)CCOCC3)O2)cc1.[I-] (stereo unspecified) | > 71.3
O=C(NC(=S)Nc1cccc([N+](=O)[O-])c1)C1CCCC1 | 2.6 (≈ 8.86 µM)
CCN(Cc1ccncc1)C(=O)c1ccc(C)o1 | > 36.6
CCCn1cnc2c(oc3ccccc32)c1=O | > 34.2
CC(O)c1nc2ccccc2n1CCCOc1ccccc1 (stereo unspecified) | > 44.5
CC1C2NC(=O)N(Cc3ccccc3)C1(C)Oc1ccccc12 (stereo unspecified) | 20.9 (≈ 67.8 µM)
Cc1cc(C)c2cc(C(=O)N3CCC(Cc4ccccc4)CC3)[nH]c2c1 | < 0.4
COCCSc1nnc(NC(=O)c2ccco2)s1 | > 42.8
CN(C)/C(=N\O)c1c(Cl)cccc1Cl | > 35
c1ccc(CCNc2ncnc3sccc23)nc1 | > 38.4
Cn1nc(C(=O)NC2CCCC2)c2ccccc2c1=O | > 40.7
O=C(CSc1ccc(Cl)cc1)NC(=O)c1ccccc1 | 6.4 (≈ 20.9 µM)
O=c1[nH]cc(COCC(F)CCl)c(=O)[nH]1 (stereo unspecified) | > 35.5
NC(=S)/N=C/c1c(O)[nH]c(=O)[nH]c1=O | 15.6 (≈ 72.8 µM)
Cc1ccc(S(=O)(=O)NC(Cc2ccccc2)C(=O)O)cc1C (stereo unspecified) | > 50
Cc1cc(SCC(=O)NC2CCCC2)nc2ccccc12 | 8.8 (≈ 29.3 µM)
Cn1c(N)c(C(=O)COC(=O)Cc2cccs2)c(=O)n(C)c1=O | > 50.6
O=C1OCCN/C1=C\C(=O)c1ccccc1 | > 32.6
NC(=O)COC(=O)Cc1coc2cc3c(cc12)CCC3 | 35.6 (≈ 130 µM)
CCCNc1c(N)c(=O)c1=O | > 23.1
Cc1ccc(C(=O)NCCNC(=O)c2ccc(C)nc2)cc1 | > 44.6
CCOC(=O)C1CCCN(C(=O)c2cc3cc(OC)c(OC)cc3[nH]2)C1 (stereo unspecified) | 17.5 (≈ 48.6 µM)

SMILES | solubility kinetic [µg/mL]
O=C(Nc1ccccc1)C1CC2CCC1C2 (stereo unspecified) | 31.8 (≈ 148 µM)
COC(=O)CCC(=O)NC(=S)Nc1ccc(S(=O)(=O)Nc2cc(C)on2)cc1 | 57.4 (≈ 135 µM)
Cc1cc2c([nH]c3ccccc32)c(C)[nH+]1.[Cl-] | 26.2
O=S(=O)(NCc1nc2ccccc2[nH]1)c1ccccc1 | > 43.1
CCCCc1ccc(NC(=S)N2CCN(c3ccccn3)CC2)cc1 | 0.8 (≈ 2.26 µM)
O=C(CCCOc1ccc(Cl)cc1)NCCc1ccccc1 | 1.5 (≈ 4.72 µM)
Cc1ccc(NC(=O)C2CCCN(c3ncccn3)C2)cc1C (stereo unspecified) | 2.1 (≈ 6.77 µM)
COC(=O)C1CC(=O)N(Cc2ccccc2)C1 (stereo unspecified) | > 35
O=C(NC1CCCC1)c1cc2cc(Br)ccc2o1 | 6.1 (≈ 19.8 µM)
COc1ccc(C(=O)Nc2cc(C)on2)c(OC)c1 | 21.4 (≈ 81.6 µM)
CCCN1C(=O)/C(=C/c2ccc3c(c2)OCO3)NC1=S | 1.9 (≈ 6.54 µM)
Cc1ccc(NC(=O)CSc2nc(C)c(C)c(C)n2)cc1S(=O)(=O)N1CCOCC1 | 4.2 (≈ 9.32 µM)
CCCCc1ccc(NC(=S)N2CCN(C(=O)OCC)CC2)cc1 | 2.2 (≈ 6.29 µM)
COC(=O)c1nc2ccc(N3CCOCC3)cc2c(C)c1C(=O)OC | > 51.7
COc1cc(C(=O)N2C(=O)CCC2=O)cc(OC)c1OC | 35.4 (≈ 121 µM)
N#Cc1ccc(C(=O)Nc2cccc(NC(=O)c3ccco3)c2)c(F)c1 | 2 (≈ 5.73 µM)
Cc1ccccc1C(=O)c1cccn1CC(=O)NCc1ccccc1 | 12.7 (≈ 38.2 µM)
Cc1ccc2c(c1)N=C(c1ccccc1)CC(C(Cl)Cl)=N2 | 7.1 (≈ 22.4 µM)
COc1cc2cc(C(=O)N(C)Cc3ccccc3)[nH]c2cc1OC | 0.7 (≈ 2.16 µM)
C=CCOc1ccc(/C=C2/C(=O)ON=C2C)cc1OC | 26.2 (≈ 95.9 µM)
